For experiment [1], the system named is SU-DHL-6 (NHL) cells. Briefly: cells. It counts as cell-based, human. As to the method: (§1) Cell lines tested included B-lymphoma, multiple myeloma, and leukemia cells.
(§2) Cytotoxicity effects of the free drug linkers and conjugates were measured with a cell proliferation assay. A total of 12500 cells in a volume of 25 μl were seeded in a 384-well flat bottom white polystyrene plate on the day of assay. Free drug-linkers and conjugates were formulated at 2× starting concentration (1000 nM for free drug linkers and 100 nM for ADCs) in RPMI medium and filtered through MultiScreen HTS 96-Well Filter Plates (Millipore). Filter sterilized samples were serial diluted (1:3) under sterile conditions and added into treatment wells. Plates were cultured at 37° C. in a CO2 incubator for 72 hrs. For cell viability measurement, 30 μl of Cell Titer-Glo® reagent (Promega Corp.) was added into each well, and plates processed as per product instructions. Relative luminescence was measured on an ENVISION® plate reader (Perkin-Elmer; Waltham, Mass.). Relative luminescence readings were converted to % viability using untreated cells as controls. Data was fitted with non-linear regression analysis, using log(inhibitor) vs. response, variable slope, 4 parameter fit equation using GraphPad Prism. Data was expressed as % relative cell viability vs. dose of free drug-linker or conjugate in nM.
as §1

Experiment [2] relates to ARP-1 (MM) cells. Format: cell-based, human. As to the method:
as §1, §2, §1

Experiment [3] concerns RPMI-8226 (MM) cells. Briefly: cells. Format: cell-based. As to the method: as §1, §2
Each of Conjugates A-F was evaluated for the ability to bind and kill cells expressing CD74. Cell lines tested included B-lymphoma, multiple myeloma, and leukemia cells. Controls included unconjugated anti-CD74 antibody.

Experiment [4] has as its system OPM-2 (MM) cells. Briefly: Cell killing assay (cell proliferation, Cell Titer-Glo), OPM-2 (MM). It counts as cell-based. Conditions: 72 hrs, NK = no killing. As to the method:
as §1, §2
(§3) Each of Conjugates A-F was evaluated for the ability to bind and kill cells expressing CD74. […]
For orientation: ATP-based viability assays read luminescence as a measure of living cells.

The test system of experiment [5] is ARD (MM) cells. In words: cells. It counts as cell-based. As to the method: as §1, §2, §1
Experiment [6] deals with BDCM (AML) cells. Briefly: cells. It counts as cell-based. The procedure:
as §1, §2, §1

Experiment [7] relates to JVM-13 (CLL) cells. Briefly: cells. Format: cell-based. The procedure:
as §1, §2, §1

The test system of experiment [8] is RPMI-6666 (HL) cells. Briefly: cells. It counts as cell-based. The procedure: as §1, §2, §1
The subject of experiment [9] is SUP-B15 (ALL) cells. In words: cells. Format: cell-based. As to the method:
as §1, §2, §1

The test system of experiment [10] is K562 (CML) cells. Briefly: Cell killing assay (cell proliferation, Cell Titer-Glo), K562 (CML). It counts as cell-based. The following applies: 72 hrs, NK = no killing. As to the method: as §1, §2, §3

pIC50: −log10 of the molar value. Where only a bound is given, the exact number is not on record here.

On to `COc1cc2cc(c1Cl)N(C)C(=O)C[C@H](OC(=O)[C@H](C)N(C)C(=O)CCCC(=O)N(C)CCOCCOCCOCCOCc1cn(C)nn1)[C@]1(C)O[C@H]1[C@H](C)[C@@H]1C[C@@](O)(NC(=O)O1)[C@H](OC)/C=C/C=C(/C)C2` [Conjugate B], for which the pIC50 – broadly, the negative decadic logarithm of the IC50, by convention in mol/L – in experiment [1] (72 h) was 8.89; in [2] (72 h), 7.80; in experiment [3] (72 h) it was 7.29; in experiment [4], under 7.30; in experiment [5] (72 h) it was 7.51; in experiment [6] (72 h), 7.82. The pIC50 was 8.70 in [7] (72 h), 8.89 in [8] (72 h), 8.24 in [9] (72 h) and under 7.30 in experiment [10]. The “Cell Killing Activity Span” value in [1] (SU-DHL-6 (NHL) cells, 72 hrs, Cell Titer-Glo, NK = no killing) was found to be 98%; in experiment [2] (ARP-1 (MM) cells, 72 hrs, Cell Titer-Glo, NK = no killing), 82%; in experiment [3] (RPMI-8226 (MM) cells, 72 hrs, Cell Titer-Glo, NK = no killing), 41%; in experiment [5] (ARD (MM) cells, 72 hrs, Cell Titer-Glo, NK = no killing) it was 53%; in experiment [6] (BDCM (AML) cells, 72 hrs, Cell Titer-Glo, NK = no killing), 95%; in [7] (JVM-13 (CLL) cells, 72 hrs, Cell Titer-Glo, NK = no killing) it was 69%. Further, the “Cell Killing Activity Span” value came to 89% in experiment [8] (RPMI-6666 (HL) cells, 72 hrs, Cell Titer-Glo, NK = no killing) and 72% in experiment [9] (SUP-B15 (ALL) cells, 72 hrs, Cell Titer-Glo, NK = no killing).

Values taken from patent publication US11708413B2 (priority 2016, dated 2023).
